Where two headings read alike, the source gives them in different places.
Key:
BRG-1 = BRG-1 (Homo sapiens, UniProt P51532); test: ATPase catalytic activity assay of BRG-1 (ADP-Glo); format: biochemical; details: ATPase catalytic activity, ADP-Glo; for IC50: read-out: BRG1 IC50 (μM)*; for Emax: read-out: BRG1 Max % Inhibition
Method in brief: (§1)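 ATPase activity of BRG-1 or BRM was read by ADP-Glo. Residual ATP was depleted (40 min, room temperature), then ADP was converted to ATP (60 min, room temperature) and measured as luciferase luminescence.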

BRM = BRM (Homo sapiens, UniProt P51531); test: ATPase catalytic activity assay of BRM (ADP-Glo); format: biochemical; details: for IC50: read-out: BRM IC50 (μM)*
Chain of BRM (P51531 whole entry): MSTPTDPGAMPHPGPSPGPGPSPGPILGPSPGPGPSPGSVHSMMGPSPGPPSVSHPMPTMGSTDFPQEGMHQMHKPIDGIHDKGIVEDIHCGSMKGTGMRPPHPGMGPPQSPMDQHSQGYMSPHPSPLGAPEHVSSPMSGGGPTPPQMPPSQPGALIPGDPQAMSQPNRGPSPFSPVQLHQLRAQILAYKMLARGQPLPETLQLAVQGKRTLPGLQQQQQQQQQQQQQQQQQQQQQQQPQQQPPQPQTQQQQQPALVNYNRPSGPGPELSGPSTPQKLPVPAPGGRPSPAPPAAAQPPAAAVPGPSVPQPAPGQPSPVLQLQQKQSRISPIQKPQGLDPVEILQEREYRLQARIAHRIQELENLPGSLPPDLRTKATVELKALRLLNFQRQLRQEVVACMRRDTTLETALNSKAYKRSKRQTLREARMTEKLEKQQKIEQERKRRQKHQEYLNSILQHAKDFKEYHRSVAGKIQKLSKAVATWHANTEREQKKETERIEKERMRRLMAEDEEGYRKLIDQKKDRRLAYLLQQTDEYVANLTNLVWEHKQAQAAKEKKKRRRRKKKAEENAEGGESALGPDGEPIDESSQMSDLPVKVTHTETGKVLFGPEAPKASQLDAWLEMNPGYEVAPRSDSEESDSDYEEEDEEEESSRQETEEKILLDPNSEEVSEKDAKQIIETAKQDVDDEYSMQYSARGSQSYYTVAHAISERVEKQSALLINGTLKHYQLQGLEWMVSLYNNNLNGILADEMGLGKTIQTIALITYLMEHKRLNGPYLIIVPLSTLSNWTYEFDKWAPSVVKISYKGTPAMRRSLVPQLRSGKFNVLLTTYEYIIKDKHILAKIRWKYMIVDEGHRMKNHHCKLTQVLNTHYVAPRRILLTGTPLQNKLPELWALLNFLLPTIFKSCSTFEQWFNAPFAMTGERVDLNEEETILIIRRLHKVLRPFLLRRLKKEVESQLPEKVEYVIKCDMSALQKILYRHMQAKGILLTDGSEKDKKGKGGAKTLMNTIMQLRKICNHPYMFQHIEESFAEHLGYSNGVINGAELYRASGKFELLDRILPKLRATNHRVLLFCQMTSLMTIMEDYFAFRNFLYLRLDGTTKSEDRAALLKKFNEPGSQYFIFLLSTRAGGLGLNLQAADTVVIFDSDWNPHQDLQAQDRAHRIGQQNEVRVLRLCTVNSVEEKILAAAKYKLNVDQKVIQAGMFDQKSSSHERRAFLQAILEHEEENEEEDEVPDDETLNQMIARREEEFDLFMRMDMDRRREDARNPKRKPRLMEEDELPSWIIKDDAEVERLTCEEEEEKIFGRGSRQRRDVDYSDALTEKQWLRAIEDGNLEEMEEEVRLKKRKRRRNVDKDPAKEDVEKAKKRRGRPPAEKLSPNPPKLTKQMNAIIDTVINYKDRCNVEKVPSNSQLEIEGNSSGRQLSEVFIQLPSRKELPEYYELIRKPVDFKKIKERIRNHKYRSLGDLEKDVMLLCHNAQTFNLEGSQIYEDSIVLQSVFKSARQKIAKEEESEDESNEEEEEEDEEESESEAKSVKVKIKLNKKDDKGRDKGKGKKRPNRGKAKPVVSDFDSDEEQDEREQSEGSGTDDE
Method in brief: as §1

Chain of BRG-1 (P51532 whole entry): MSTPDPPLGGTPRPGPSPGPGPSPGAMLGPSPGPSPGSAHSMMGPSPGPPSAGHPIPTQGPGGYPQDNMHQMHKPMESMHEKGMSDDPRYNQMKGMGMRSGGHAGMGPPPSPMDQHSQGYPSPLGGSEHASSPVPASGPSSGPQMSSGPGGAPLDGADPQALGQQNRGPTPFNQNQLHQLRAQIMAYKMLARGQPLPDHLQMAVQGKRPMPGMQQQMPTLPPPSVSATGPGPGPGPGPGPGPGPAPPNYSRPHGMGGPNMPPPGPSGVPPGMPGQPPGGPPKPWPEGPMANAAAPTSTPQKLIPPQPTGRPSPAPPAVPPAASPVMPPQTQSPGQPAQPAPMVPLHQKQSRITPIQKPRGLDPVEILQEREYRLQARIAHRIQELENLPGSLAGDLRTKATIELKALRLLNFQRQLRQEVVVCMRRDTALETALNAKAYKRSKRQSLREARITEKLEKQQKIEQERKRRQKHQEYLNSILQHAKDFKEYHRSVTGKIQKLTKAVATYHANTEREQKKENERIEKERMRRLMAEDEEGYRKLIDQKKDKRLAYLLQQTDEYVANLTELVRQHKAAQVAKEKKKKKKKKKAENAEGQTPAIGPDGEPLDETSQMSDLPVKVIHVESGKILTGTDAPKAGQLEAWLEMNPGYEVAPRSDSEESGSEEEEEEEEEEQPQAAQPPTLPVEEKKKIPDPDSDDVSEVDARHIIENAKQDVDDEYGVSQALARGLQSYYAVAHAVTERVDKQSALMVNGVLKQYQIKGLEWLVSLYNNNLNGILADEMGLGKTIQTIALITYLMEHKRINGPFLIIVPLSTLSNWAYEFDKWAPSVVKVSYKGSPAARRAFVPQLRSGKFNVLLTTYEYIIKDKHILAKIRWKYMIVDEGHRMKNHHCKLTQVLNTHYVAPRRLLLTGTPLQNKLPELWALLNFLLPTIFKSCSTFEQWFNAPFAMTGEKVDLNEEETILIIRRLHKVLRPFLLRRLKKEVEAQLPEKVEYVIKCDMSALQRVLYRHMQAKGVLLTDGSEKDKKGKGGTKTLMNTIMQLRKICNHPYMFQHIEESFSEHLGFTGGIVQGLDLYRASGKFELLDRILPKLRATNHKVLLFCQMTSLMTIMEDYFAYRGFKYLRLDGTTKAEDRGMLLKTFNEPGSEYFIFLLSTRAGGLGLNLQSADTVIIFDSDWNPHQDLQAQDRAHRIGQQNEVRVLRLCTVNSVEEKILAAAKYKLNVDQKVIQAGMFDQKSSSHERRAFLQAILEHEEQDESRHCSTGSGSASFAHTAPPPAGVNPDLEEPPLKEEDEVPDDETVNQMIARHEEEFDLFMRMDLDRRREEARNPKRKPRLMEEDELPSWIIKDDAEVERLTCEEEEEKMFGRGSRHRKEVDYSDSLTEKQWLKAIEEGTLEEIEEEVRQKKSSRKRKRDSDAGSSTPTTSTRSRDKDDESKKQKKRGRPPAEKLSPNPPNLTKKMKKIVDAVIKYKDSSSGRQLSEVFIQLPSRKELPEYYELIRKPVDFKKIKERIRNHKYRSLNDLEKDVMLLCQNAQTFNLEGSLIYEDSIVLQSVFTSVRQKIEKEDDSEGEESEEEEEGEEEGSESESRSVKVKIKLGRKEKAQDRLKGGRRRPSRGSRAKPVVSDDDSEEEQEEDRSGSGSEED

| SMILES | IC50 (BRG-1) | Emax (BRG-1) | BRM Max % Inhibition (BRM) | IC50 (BRM) | IC50 (BRG-1; 30 nM BRG-1, 400 μM ATP) | Emax (BRG-1; 30 nM BRG-1, 400 μM ATP) | BRM Max % Inhibition (BRM; 30 nM BRM, 400 μM ATP) | IC50 (BRM; 30 nM BRM, 400 μM ATP) | BRG1 Max % Inhibition (BRG-1) |
| --- | --- | --- | --- | --- | --- | --- | --- | --- | --- |
| COc1cccc(-c2csc(NC(=O)CNC(=O)c3ccc4c(c3)C(C)(F)CCCO4)n2)c1 (stereo in doubt) [Compound 324, (S)-5-fluoro-N-(2-((4-(3-methoxyphenyl)thiazol-2-yl)amino)-2-oxoethyl)-5-methyl-2,3,4,5-tetrahydrobenzo[b]oxepine-7-carboxamide] | 0.1 to 1 µM | > 90% | >90% | 0.1 to 1 µM |  |  |  |  |  |
| C[C@@H]1CN(c2cccc(-c3csc(NC(=O)CNC(=O)c4cccc(C5(C#N)COC5)c4)n3)c2)C[C@H](C)O1 [Compound 418, 3-(3-cyanooxetan-3-yl)-N-(2-((4-(3-((cis)-2,6-dimethylmorpholino)phenyl)thiazol-2-yl)amino)-2-oxoethyl)benzamide] |  |  |  |  | 0.1 to 1 µM | > 95% | >95% | < 0.1 µM |  |
| C[Si](C)(C)c1cccc(C(=O)NCC(=O)Nc2nc(-c3cccc(-c4ccncc4)c3)cs2)c1 [Compound 248, N-[2-oxo-2-[[4-[3-(4-pyridyl)phenyl]thiazol-2-yl]amino]ethyl]-3-trimethylsilyl-benzamide] | 1 to 5 µM | > 30% | >40% | 0.1 to 1 µM |  |  |  |  |  |
| C[C@@H]1CN(c2cccc(-c3csc(NC(=O)CNC(=O)c4ccc5c(c4)[C@@](C)(F)COC5)n3)n2)C[C@H](C)O1 [Compound 412, (R)-N-(2-((4-(6-((cis)-2,6-dimethylmorpholino)pyridin-2-yl)thiazol-2-yl)amino)-2-oxoethyl)-4-fluoro-4-methylisochromane-6-carboxamide] | 0.1 to 1 µM | > 90% | >90% | 0.1 to 1 µM |  |  |  |  |  |
| C[C@@H]1CN(c2cccc(-c3csc(NC(=O)CNC(=O)c4cccc5c4OCC[C@]5(C)C#N)n3)c2)C[C@H](C)O1 [Compound 148, (S)-4-cyano-N-(2-((4-(3-((cis)-2,6-dimethylmorpholino)phenyl)thiazol-2-yl)amino)-2-oxoethyl)-4-methylchroman-8-carboxamide] | > 5 µM | > 30% | >70% | 0.1 to 1 µM |  |  |  |  |  |
| COc1cccc(-c2csc(NC(=O)[C@H](C)NC(=O)c3ccc4c(c3)[C@](C)(F)COC4)n2)c1 [Compound 309, (S)-4-fluoro-N-((S)-1-((4-(3-methoxyphenyl)thiazol-2-yl)amino)-1-oxopropan-2-yl)-4-methylisochromane-6-carboxamide] | 0.1 to 1 µM | > 95% | >95% | < 0.1 µM |  |  |  |  |  |
| Cc1cc(-c2cccc(-c3csc(NC(=O)CNC(=O)c4ccc(C)c(C(C)(C)CN)c4)n3)c2)cc(C)n1 [Compound 92] | 0.1 to 1 µM | > 95% | >95% | < 0.1 µM |  |  |  |  |  |
| CC1(c2cccc(C(=O)NCC(=O)Nc3nc(-c4cccc(-c5ccncc5)c4)cs3)c2)CCNC1=O (stereo not drawn) [Compound 82, 3-(3-methyl-2-oxopyrrolidin-3-yl)-N-(2-oxo-2-((4-(3-(pyridin-4-yl)phenyl)thiazol-2-yl)amino)ethyl)benzamide] | 0.1 to 1 µM | > 90% | >95% | 0.1 to 1 µM |  |  |  |  |  |
| CN1CCOc2ccc(-c3csc(NC(=O)CNC(=O)c4ccc5c(c4)[C@@](C)(CO)CC5)n3)cc21 [Compound 174, (S)-3-(hydroxymethyl)-3-methyl-N-(2-((4-(4-methyl-3,4-dihydro-2H-benzo[b][1,4]oxazin-6-yl)thiazol-2-yl)amino)-2-oxoethyl)-2,3-dihydro-1H-indene-5-carboxamide] | 1 to 5 µM | > 50% | >80% | 0.1 to 1 µM |  |  |  |  |  |
| Cc1cc(-c2cccc(-c3csc(NC(=O)CNC(=O)c4ccc5c(c4)[C@@](C)(CO)CC5)n3)c2)nc(C)n1 [Compound 227, (3S)-N-[2-[[4-[3-(2,6-dimethylpyrimidin-4-yl)phenyl]thiazol-2-yl]amino]-2-oxo-ethyl]-3-(hydroxymethyl)-3-methylindane-5-carboxamide] | < 0.1 µM | > 95% | >95% | < 0.1 µM |  |  |  |  |  |
| C[C@@]1(CO)CCc2ccc(C(=O)NCC(=O)Nc3nc(-c4cccc(-c5cccnc5O)n4)cs3)cc21 [Compound 264, (R)-N-(2-((4-(2′-hydroxy-[2,3′-bipyridin]-6-yl)thiazol-2-yl)amino)-2-oxoethyl)-3-(hydroxymethyl)-3-methyl-2,3-dihydro-1H-indene-5-carboxamide] | > 5 µM | < 30% | >70% | 1 to 5 µM |  |  |  |  |  |
| C[C@]1(CO)CCc2c(C(=O)NCC(=O)Nc3nc(-c4cccc(-c5ccncc5)c4)cs3)cccc21 [Compound 226, (S)-1-(hydroxymethyl)-1-methyl-N-(2-oxo-2-((4-(3-(pyridin-4-yl)phenyl)thiazol-2-yl)amino)ethyl)-2,3-dihydro-1H-indene-4-carboxamide] | 1 to 5 µM | > 70% | >95% | 0.1 to 1 µM |  |  |  |  |  |
| CC1(C)c2cc(C(=O)NCC(=O)Nc3nc(-c4cccc(-c5ccncc5)c4)cs3)ccc2C[C@@H]1N [Compound 250, (S)-2-amino-3,3-dimethyl-N-(2-oxo-2-((4-(3-(pyridin-4-yl)phenyl)thiazol-2-yl)amino)ethyl)-2,3-dihydro-1H-indene-5-carboxamide] | > 5 µM | > 50% | >70% | 1 to 5 µM |  |  |  |  |  |
| C[C@@]1(C#N)COCc2ccc(C(=O)NCC(=O)Nc3nc(-c4cccc([C@H]5CCO5)c4)cs3)cc21 [Compound 359, (R)-4-cyano-4-methyl-N-(2-((4-(3-((trans)-oxetan-2-yl)phenyl)thiazol-2-yl)amino)-2-oxoethyl)isochromane-6-carboxamide] | 0.1 to 1 µM | > 95% | >95% | < 0.1 µM |  |  |  |  |  |
| CC1(CO)CCc2ccc(C(=O)NCC(=O)Nc3nc(-c4cccc(-c5ccncc5)c4)cs3)cc21 (single isomer, unassigned) [Compound 107] | 0.1 to 1 µM |  | >90% | 0.1 to 1 µM |  |  |  |  | >70% |
| COc1cccc(-c2csc(NC(=O)CNC(=O)c3ccc4c(c3)C(C)(F)CCCO4)n2)c1 (stereo in doubt) [Compound 325, (R)-5-fluoro-N-(2-((4-(3-methoxyphenyl)thiazol-2-yl)amino)-2-oxoethyl)-5-methyl-2,3,4,5-tetrahydrobenzo[b]oxepine-7-carboxamide] | 0.1 to 1 µM | > 95% | >95% | 0.1 to 1 µM |  |  |  |  |  |
| Cn1ccc2ccc(-c3csc(NC(=O)CNC(=O)c4ccc5c(c4)[C@@](C)(C#N)CCO5)n3)cc2c1=O [Compound 433, (S)-4-cyano-4-methyl-N-(2-((4-(2-methyl-1-oxo-1,2-dihydroisoquinolin-7-yl)thiazol-2-yl)amino)-2-oxoethyl)chromane-6-carboxamide] |  |  |  |  | 0.1 to 1 µM | > 95% | >95% | < 0.1 µM |  |
| C[C@@H]1CN(c2cccc(-c3csc(NC(=O)CNC(=O)c4cnc5c(c4)[C@@](C)(CO)CC5)n3)c2)C[C@H](C)O1 [Compound 144, (S)-N-(2-((4-(3-((cis)-2,6-dimethylmorpholino)phenyl)thiazol-2-yl)amino)-2-oxoethyl)-5-(hydroxymethyl)-5-methyl-6,7-dihydro-5H-cyclopenta[b]pyridine-3-carboxamide] | 0.1 to 1 µM | > 80% | >95% | 0.1 to 1 µM |  |  |  |  |  |

Reference: patent publication US12685735B2 (Foghorn Therapeutics Inc., priority 2020, dated 2026)
